Values joined by “and” are separate entries in the source; they are usually repeats but may differ in a detail not shown here. Identical values can stand only once.
Legend:
Assay type in all cases: in vivo, Macaca mulatta (Rhesus Macaque)
[1] = system: rhesus monkeys with spontaneous chronic kidney disease; assay: Effect on NT-proBNP (ELISA), 8-week administration
Text: In the trial, animals were brought in three stages. […] ELISA kit was used for NT-proBNP test. [table]

[2] = system: rhesus monkeys with spontaneous chronic kidney disease; assay: Effect on cystatin C (CysC), 8-week administration
Experimental: (§1) In the trial, animals were brought in three stages. […] Glomerular filtration rate […]: creatinine (Cr-P), urea nitrogen (BUN) and cystatin (CysC) were detected, and the eGFR value was obtained by calculation. It was performed once before the administration and once every two weeks after the administration. […] ELISA kit was used for NT-proBNP test. [table]

[3] = system: rhesus monkeys with spontaneous chronic kidney disease; assay: Effect on plasma creatinine Cr-P, 8-week administration
Experimental: as §1

[4] = 1 mg/kg (n = 5), Baseline, single animals and Mean ± SD
[5] = 1 mg/kg (n = 5), Baseline, single animals and Mean ± SD, mean
[6] = 2 mg/kg (n = 5), Baseline, single animals and Mean ± SD
[7] = 2 mg/kg (n = 5), Baseline, single animals and Mean ± SD, mean
[8] = 5 mg/kg (n = 6), Baseline, single animals and Mean ± SD
[9] = 5 mg/kg (n = 6), Baseline, single animals and Mean ± SD, mean

In the case of `COC(=O)NCCCn1nc([C@@H](C)N(C(=O)[C@H]2CNCCO2)C2CC2)c2ccc(C)nc21.O=C(O)C[C@H](O)C(=O)O` [malate of compound of Formula I], the NT-proBNP [1, 4] was 88 pg/mL and 299 pg/mL and 127 pg/mL and 203 pg/mL and 44 pg/mL, the NT-proBNP [1, 5] was 152 ± 101 pg/mL and the NT-proBNP [1, 6] was 43 pg/mL and 155 pg/mL and 335 pg/mL and 46 pg/mL and 250 pg/mL. The NT-proBNP [1, 7] was 166 ± 127 pg/mL, the NT-proBNP ([1]; 5 mg/kg (n = 6), 8 weeks) was 261 pg/mL and 146 pg/mL and 250 pg/mL and 197 pg/mL and 180 pg/mL and the NT-proBNP ([1]; 5 mg/kg (n = 6), 8 weeks, mean) was 231 ± 73 pg/mL. The NT-proBNP [1, 8] was 312 pg/mL and 88 pg/mL and 211 pg/mL and 432 pg/mL and 177 pg/mL and 162 pg/mL, the NT-proBNP [1, 9] was 230 ± 123 pg/mL and the CysC ([2]; 1 mg/kg (n = 5), 2 weeks) was 1.66 mg/L and 1.64 mg/L and 1.83 mg/L and 1.55 mg/L. For the same molecule, the CysC ([2]; 1 mg/kg (n = 5), 2 weeks, mean) was 1.70 ± 0.12 mg/L, the CysC ([2]; 1 mg/kg (n = 5), 4 weeks) was 1.49 mg/L and 1.43 mg/L and 1.57 mg/L and 1.76 mg/L and 1.50 mg/L and the CysC ([2]; 1 mg/kg (n = 5), 4 weeks, mean) was 1.55 ± 0.13 mg/L. The CysC ([2]; 1 mg/kg (n = 5), 6 weeks) was 1.48 mg/L and 1.61 mg/L and 1.62 mg/L and 1.68 mg/L and 1.50 mg/L, the CysC ([2]; 1 mg/kg (n = 5), 6 weeks, mean) was 1.58 ± 0.08 mg/L and the CysC ([2]; 1 mg/kg (n = 5), 8 weeks) was 1.51 mg/L and 1.59 mg/L and 1.62 mg/L and 1.77 mg/L. For the same molecule, the CysC ([2]; 1 mg/kg (n = 5), 8 weeks, mean) was 1.60 ± 0.11 mg/L, the CysC [2, 4] was 1.67 mg/L and 1.80 mg/L and 1.72 mg/L and 1.84 mg/L and 1.75 mg/L and the CysC [2, 5] was 1.76 ± 0.07 mg/L. The CysC ([2]; 2 mg/kg (n = 5), 2 weeks) was 1.44 mg/L and 1.97 mg/L and 1.71 mg/L and 1.73 mg/L and 1.51 mg/L, the CysC ([2]; 2 mg/kg (n = 5), 2 weeks, mean) was 1.67 ± 0.21 mg/L and the CysC ([2]; 2 mg/kg (n = 5), 4 weeks) was 1.31 mg/L and 1.77 mg/L and 1.56 mg/L and 1.43 mg/L and 1.47 mg/L. For the same molecule, the CysC ([2]; 2 mg/kg (n = 5), 4 weeks, mean) was 1.51 ± 0.17 mg/L, the CysC ([2]; 2 mg/kg (n = 5), 6 weeks) was 1.39 mg/L and 1.76 mg/L and 1.65 mg/L and 1.54 mg/L and 1.42 mg/L and the CysC ([2]; 2 mg/kg (n = 5), 6 weeks, mean) was 1.55 ± 0.16 mg/L. For the same molecule, the CysC ([2]; 2 mg/kg (n = 5), 8 weeks) was 1.36 mg/L and 1.68 mg/L and 1.58 mg/L and 1.55 mg/L and 1.47 mg/L, the CysC ([2]; 2 mg/kg (n = 5), 8 weeks, mean) was 1.53 ± 0.12 mg/L and the CysC [2, 6] was 1.57 mg/L and 1.87 mg/L and 1.72 mg/L and 1.69 mg/L and 1.56 mg/L. For the same molecule, the CysC [2, 7] was 1.68 ± 0.13 mg/L, the CysC ([2]; 5 mg/kg (n = 6), 2 weeks) was 1.63 mg/L and 1.45 mg/L and 2.63 mg/L and 1.46 mg/L and 1.64 mg/L and the CysC ([2]; 5 mg/kg (n = 6), 2 weeks, mean) was 1.74 ± 0.44 mg/L. For the same molecule, the CysC ([2]; 5 mg/kg (n = 6), 4 weeks) was 1.68 mg/L and 1.73 mg/L and 1.64 mg/L and 2.41 mg/L and 1.36 mg/L and 1.44 mg/L, the CysC ([2]; 5 mg/kg (n = 6), 4 weeks, mean) was 1.71 ± 0.37 mg/L and the CysC ([2]; 5 mg/kg (n = 6), 6 weeks) was 1.59 mg/L and 1.47 mg/L and 1.80 mg/L and 2.45 mg/L and 1.40 mg/L and 1.46 mg/L. For the same molecule, the CysC ([2]; 5 mg/kg (n = 6), 6 weeks, mean) was 1.70 ± 0.40 mg/L, the CysC ([2]; 5 mg/kg (n = 6), 8 weeks) was 1.46 mg/L and 1.69 mg/L and 1.66 mg/L and 2.29 mg/L and 1.50 mg/L and 1.39 mg/L and the CysC ([2]; 5 mg/kg (n = 6), 8 weeks, mean) was 1.67 ± 0.33 mg/L. For the same molecule, the CysC [2, 8] was 1.49 mg/L and 1.63 mg/L and 1.61 mg/L and 2.52 mg/L and 1.47 mg/L and 1.55 mg/L, the CysC [2, 9] was 1.71 ± 0.40 mg/L and the Cr-P ([3]; 1 mg/kg (n = 5), 2 weeks) was 1.21 mg/dL and 1.07 mg/dL and 1.12 mg/dL and 1.13 mg/dL and 1.24 mg/dL. For the same molecule, the Cr-P ([3]; 1 mg/kg (n = 5), 2 weeks, mean) was 1.15 ± 0.07 mg/dL, the Cr-P ([3]; 1 mg/kg (n = 5), 4 weeks) was 1.11 mg/dL and 1.01 mg/dL and 1.12 mg/dL and 1.06 mg/dL and 1.26 mg/dL and the Cr-P ([3]; 1 mg/kg (n = 5), 4 weeks, mean) was 1.11 ± 0.09 mg/dL. The Cr-P ([3]; 1 mg/kg (n = 5), 6 weeks) was 1.16 mg/dL and 1.07 mg/dL and 1.22 mg/dL, the Cr-P ([3]; 1 mg/kg (n = 5), 6 weeks, mean) was 1.12 ± 0.07 mg/dL and the Cr-P ([3]; 1 mg/kg (n = 5), 8 weeks) was 1.14 mg/dL and 1.01 mg/dL and 1.17 mg/dL and 1.18 mg/dL and 1.22 mg/dL. The Cr-P ([3]; 1 mg/kg (n = 5), 8 weeks, mean) was 1.14 ± 0.08 mg/dL, the Cr-P [3, 4] was 1.25 mg/dL and 1.03 mg/dL and 1.09 mg/dL and 1.05 mg/dL and 1.21 mg/dL and the Cr-P [3, 5] was 1.13 ± 0.10 mg/dL. The Cr-P ([3]; 2 mg/kg (n = 5), 2 weeks) was 1.1 mg/dL and 1.19 mg/dL and 1.52 mg/dL and 1.54 mg/dL and 1.11 mg/dL, the Cr-P ([3]; 2 mg/kg (n = 5), 2 weeks, mean) was 1.29 ± 0.22 mg/dL and the Cr-P ([3]; 2 mg/kg (n = 5), 4 weeks) was 1.15 mg/dL and 1.44 mg/dL and 1.47 mg/dL and 1.26 mg/dL and 1.09 mg/dL. The Cr-P ([3]; 2 mg/kg (n = 5), 4 weeks, mean) was 1.28 ± 0.17 mg/dL, the Cr-P ([3]; 2 mg/kg (n = 5), 6 weeks) was 1.17 mg/dL and 1.27 mg/dL and 1.43 mg/dL and 1.34 mg/dL and 1.04 mg/dL and the Cr-P ([3]; 2 mg/kg (n = 5), 6 weeks, mean) was 1.25 ± 0.15 mg/dL. For the same molecule, the Cr-P ([3]; 2 mg/kg (n = 5), 8 weeks) was 1.17 mg/dL and 1.29 mg/dL and 1.4 mg/dL and 1.3 mg/dL and 1.11 mg/dL, the Cr-P ([3]; 2 mg/kg (n = 5), 8 weeks, mean) was 1.25 ± 0.11 mg/dL and the Cr-P [3, 6] was 1.15 mg/dL and 1.14 mg/dL and 1.36 mg/dL and 1.42 mg/dL and 1.06 mg/dL. For the same molecule, the Cr-P [3, 7] was 1.23 ± 0.16 mg/dL.

— patent US20230330093A1, “APPLICATION OF NITROGEN-CONTAINING SATURATED HETEROCYCLIC COMPOUND” (SHANGHAI PHARMACEUTICALS HOLDING CO., LTD., priority 2020, published 2023)
